Read-outs that look alike come from different tables or passages of the source.
Columns and labels:
[1] = target: norepinephrine transporter (UniProt Q9WTR4); assay: Inhibition of [3H]nisoxetine radioligand binding at the norepinephrine transporter
Excerpt: (§1) Illustrative in vitro assays for binding are described in Boja et al Ann. NY Acad. Sci. 654:282-291 (1992), which is incorporated herein by reference in its entirety. […] Alternatively, the compounds may be analyzed by their ability to inhibit reuptake of a labelled neurotransmitter in a sample, in particular, in synaptosomes.

dopamine transporter = dopamine transporter (UniProt P23977); assay type: binding
Excerpt: as §1

serotonin transporter = target: T1, serotonin transporter (Rattus norvegicus, UniProt P31652); assay: Inhibition of [3H]paroxetine radioligand binding at the serotonin transporter
T1 construct: from tissue
Excerpt: as §1

[2] = read-out: NEN IC50 for inhibition of radioligand binding, NEN=[3H] nisoxetine
[3] = read-out: DA IC50 for inhibition of radioligand binding, DA=[3H]WIN 35,428
[4] = 5-HT IC50 for inhibition of radioligand binding, 5-HT=[3H] paroxetine
[5] = 5-HT=[3H] paroxetine, read-out: 5-HT IC50 for inhibition of radioligand binding

T1 sequence (P31652 whole entry): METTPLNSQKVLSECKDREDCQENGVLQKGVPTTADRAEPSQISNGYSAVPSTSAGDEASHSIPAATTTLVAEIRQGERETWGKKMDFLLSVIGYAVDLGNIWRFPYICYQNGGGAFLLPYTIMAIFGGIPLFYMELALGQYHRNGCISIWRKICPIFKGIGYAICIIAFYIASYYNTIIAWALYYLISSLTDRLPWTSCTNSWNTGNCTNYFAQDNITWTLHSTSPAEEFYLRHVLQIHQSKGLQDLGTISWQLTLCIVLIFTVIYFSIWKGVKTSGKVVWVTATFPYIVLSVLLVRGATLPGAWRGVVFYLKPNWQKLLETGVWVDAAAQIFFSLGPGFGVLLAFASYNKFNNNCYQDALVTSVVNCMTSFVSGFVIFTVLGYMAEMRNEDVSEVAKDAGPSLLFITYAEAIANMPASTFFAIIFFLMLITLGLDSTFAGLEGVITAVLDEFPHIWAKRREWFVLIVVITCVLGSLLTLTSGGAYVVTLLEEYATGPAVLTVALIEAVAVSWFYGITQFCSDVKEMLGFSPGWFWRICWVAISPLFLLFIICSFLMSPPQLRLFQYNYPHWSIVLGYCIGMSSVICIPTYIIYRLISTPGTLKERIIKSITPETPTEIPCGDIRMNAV

Compound: COC(=O)C1C(c2ccc(C)c(I)c2)CC2CCC1N2C (centres unmarked) [RTI-4229-280]
- IC50 [1, 2]: 484 nM
- IC50 (dopamine transporter; [3]): 3.12 nM
- IC50 (serotonin transporter; [4]): 6.81 nM

Compound: CC#Cc1ccc(C2CC3CCC(C2C(=O)OC)N3C)cc1 (centres unmarked) [RTI-4229-281]
- IC50 [1, 2]: 820 nM
- IC50 (dopamine transporter; [3]): 2.37 nM
- IC50 (serotonin transporter; [5]): 15.7 nM

Compound: CCCc1ccc(C2CC3CCC(C2C(=O)OC)N3C)cc1 (centres unmarked) [RTI-4229-282]
- IC50 [1, 2]: 3920 nM
- IC50 (dopamine transporter; [3]): 68.5 nM
- IC50 (serotonin transporter; [5]): 70.4 nM

Compound: C=C(C)c1ccc(C2CC3CCC(C2C(=O)OC)N3C)cc1 (centres unmarked) [RTI-4229-283]
- IC50 [1, 2]: 3130 nM
- IC50 (dopamine transporter; [3]): 14.3 nM
- IC50 (serotonin transporter; [5]): 3.13 nM

Compound: CCc1ccc(C2CC3CCC(C2C(=O)OC)N3C)cc1 (centres unmarked) [RTI-4229-287]
- IC50 [1, 2]: 17800 nM
- IC50 (dopamine transporter; [3]): 325 nM
- IC50 (serotonin transporter; [4]): 1690 nM

Compound: CCc1ccc(C2CC3CCC(C2C(=O)OC)N3C)cc1I (centres unmarked) [RTI-4229-295]
- IC50 [1, 2]: 1350 nM
- IC50 (dopamine transporter; [3]): 21.3 nM
- IC50 (serotonin transporter; [4]): 2.96 nM

Compound: C/C=C/c1ccc(C2CC3CCC(C2C(=O)OC)N3C)cc1 (centres unmarked) [RTI-4229-296]
- IC50 [1, 2]: 1590 nM
- IC50 (dopamine transporter; [3]): 5.29 nM
- IC50 (serotonin transporter; [5]): 11.4 nM

Compound: COC(=O)[C@H]1[C@@H](c2ccc(C#Cc3ccccc3)cc2)C[C@@H]2CC[C@H]1N2C [RTI-4229-298]
- IC50 [1, 2]: 347 nM
- IC50 (dopamine transporter; [3]): 3.7 nM
- IC50 (serotonin transporter; [4]): 46.8 nM

Compound: C/C=C\c1ccc(C2C[C@H]3CCC(C2C(=O)OC)N3C)cc1 (some centres unmarked) [RTI-4229-304]
- IC50 [1, 2]: 2800 nM
- IC50 (dopamine transporter; [3]): 15 nM
- IC50 (serotonin transporter; [4]): 7.09 nM

Compound: COC(=O)C1C2CCC(CC1c1ccc(C)cc1)N2 (centres unmarked) [RTI-4229-305]
- IC50 [1, 2]: 21.8 nM
- IC50 (dopamine transporter; [3]): 1.24 nM
- IC50 (serotonin transporter; [4]): 1.59 nM

Compound: CCC#Cc1ccc(C2CC3CCC(N3)C2C(=O)OC)cc1 (centres unmarked) [RTI-4229-307]
- IC50 [1, 2]: 116 nM
- IC50 (dopamine transporter; [3]): 6.11 nM
- IC50 (serotonin transporter; [4]): 3.16 nM

Compound: C=Cc1ccc(C2CC3CCC(N3)C2C(=O)OC)cc1 (centres unmarked) [RTI-4229-309]
- IC50 [1, 2]: 14.9 nM
- IC50 (dopamine transporter; [3]): 1.73 nM
- IC50 (serotonin transporter; [5]): 2.25 nM

Compound: COC(=O)[C@@H]1C2CCC(C[C@@H]1c1ccc3ccccc3c1)N2C (some centres unmarked) [RTI-4229-318]
- IC50 [1, 2]: 21.1 nM
- IC50 (dopamine transporter; [3]): 0.51 nM
- IC50 (serotonin transporter; [4]): 0.8 nM

Compound: COC(=O)C1C(c2ccc3ccccc3c2)CC2CCC1N2C (centres unmarked) [RTI-4229-319]
- IC50 [1, 2]: 70.2 nM
- IC50 (dopamine transporter; [3]): 1.1 nM
- IC50 (serotonin transporter; [4]): 11.4 nM

Compound: CCc1cc([C@@H]2C3CCC(C[C@@H]2c2ccc(Cl)cc2)N3C)on1 (some centres unmarked) [RTI-4229-334]
- IC50 [1, 2]: 120 nM
- IC50 (dopamine transporter; [3]): 0.5 nM
- IC50 (serotonin transporter; [4]): 3090 nM

Compound: CC(C)c1cc([C@@H]2C3CCC(C[C@@H]2c2ccc(Cl)cc2)N3C)on1 (some centres unmarked) [RTI-4229-335]
- IC50 [1, 2]: 954 nM
- IC50 (dopamine transporter; [3]): 1.19 nM
- IC50 (serotonin transporter; [4]): 2320 nM

Compound: Cc1ccc(-c2cc([C@@H]3C4CCC(C[C@@H]3c3ccc(Cl)cc3)N4C)on2)cc1 (some centres unmarked) [RTI-4229-336]
- IC50 [1, 2]: 1710 nM
- IC50 (dopamine transporter; [3]): 4.09 nM
- IC50 (serotonin transporter; [4]): 5740 nM

Compound: CCc1ccc(C2CC3CCC(N3)C2C(=O)OCc2ccccc2)cc1 (centres unmarked) [RTI-4229-338]
- IC50 [1, 2]: 3370 nM
- IC50 (dopamine transporter; [3]): 1100 nM
- IC50 (serotonin transporter; [4]): 7.41 nM

Compound: CN1C2CCC1[C@@H](c1cc(-c3ccc(Cl)cc3)no1)[C@@H](c1ccc(Cl)cc1)C2 (some centres unmarked) [RTI-4229-345]
- IC50 [1, 2]: 5290 nM
- IC50 (dopamine transporter; [3]): 6.42 nM
- IC50 (serotonin transporter; [4]): > 76000 nM

Compound: COc1ccc(-c2cc([C@@H]3C4CCC(C[C@@H]3c3ccc(Cl)cc3)N4C)on2)cc1 (some centres unmarked) [RTI-4229-346]
- IC50 [1, 2]: 762 nM
- IC50 (dopamine transporter; [3]): 1.57 nM
- IC50 (serotonin transporter; [4]): 5880 nM

Compound: CN1C2CCC1[C@@H](c1cc(-c3ccc(F)cc3)no1)[C@@H](c1ccc(Cl)cc1)C2 (some centres unmarked) [RTI-4229-347]
- IC50 [1, 2]: 918 nM
- IC50 (dopamine transporter; [3]): 1.86 nM
- IC50 (serotonin transporter; [4]): 7260 nM

Compound: CN1C2CCC1C(c1ccccc1)C(c1ccccc1)C2 (centres unmarked) [RTI-4229-348]
- IC50 [1, 2]: 2670 nM
- IC50 (dopamine transporter; [3]): 28.2 nM
- IC50 (serotonin transporter; [5]): 34700 nM

Compound: COC(=O)C1C(c2ccc(I)cc2)CC2CCC1N2C (centres unmarked) [RTI-4229-352]
- IC50 [1, 2]: 52.4 nM
- IC50 (dopamine transporter; [3]): 2.86 nM
- IC50 (serotonin transporter; [5]): 64.9 nM

Compound: CCc1ccc(C2CC3CCC(N3)C2C(=O)OC)cc1I (centres unmarked) [RTI-4229-353]
- IC50 ([1]; read-out: IC50 NE [3H] Nisoxetine, Table III): 148 ± 9.2 nM
- IC50 [1, 2]: 148 nM
- IC50 (dopamine transporter; [3]): 331 nM
- IC50 (dopamine transporter; read-out: IC50 DA [3H] WIN 35,428, Table III): 331 ± 17 nM
- IC50 (serotonin transporter; [5]): 0.69 nM
- potency at the serotonin site (serotonin transporter; in words): highly potent
- selectivity relative to the dopamine and norepinephrine sites (serotonin transporter; in words): selective
- IC50 (serotonin transporter; read-out: IC50 5-HT [3H] Paroxetine, Table III): 0.69 ± 0.07 nM

Compound: Cc1ccc(C2CC3CCC(C2c2ccccc2)N3C)cc1 (centres unmarked) [RTI-4229-422]
- IC50 [1, 2]: 6090 nM
- IC50 (dopamine transporter; [3]): 1.96 nM
- IC50 (serotonin transporter; [4]): 1100 nM

Reference: patent US6706880B2 (Research Triangle Institute, priority 1990, dated 2004)
